Assay [1] addresses Dual specificity protein kinase CLK2 (Homo sapiens, UniProt P49760). It counts as functional.
For assay [2], the target named is Serine/threonine-protein kinase TBK1 (Homo sapiens, UniProt Q9UHD2). Description: Navigating the Kinome. Panel member name: TBK1. It counts as functional.
Assay [3] concerns the target Activin receptor type-1 (Homo sapiens, UniProt Q04771). Description: Navigating the Kinome. Panel member name: ACVR1. It counts as functional.
For assay [4], the target named is Tyrosine-protein kinase JAK3 (Homo sapiens, UniProt P52333). It counts as functional.
For assay [5], the target named is Hepatocyte growth factor receptor (Homo sapiens, UniProt P08581). It counts as functional.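 Also: kinase panel profiling across the kinome, with MET as the panel member.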
Assay [6] concerns the target Tyrosine-protein kinase Fyn (Homo sapiens, UniProt P06241). It counts as functional.
In assay [7] the target is Calcium/calmodulin-dependent protein kinase type II subunit alpha (Homo sapiens, UniProt Q9UQM7). Description: Navigating the Kinome. Panel member name: CAMK2A. It counts as functional.
In assay [8] the target is Calcium/calmodulin-dependent protein kinase type II subunit gamma (Homo sapiens, UniProt Q13555). It counts as functional.
Assay [9] addresses SRSF protein kinase 1 (Homo sapiens, UniProt Q96SB4). It counts as functional.
Assay [10] concerns the target MAP kinase-activated protein kinase 5 (Homo sapiens, UniProt Q8IW41). It counts as functional.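 Also: measured as one member of a kinome panel.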
For assay [11], the target named is Homeodomain-interacting protein kinase 2 (Homo sapiens, UniProt Q9H2X6). It counts as functional.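 Also: measured within a kinome-wide kinase profiling panel, HIPK2 being one panel member.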
Assay [12] addresses Non-receptor tyrosine-protein kinase TYK2 (Homo sapiens, UniProt P29597). It counts as functional.
Assay [13] deals with Receptor-type tyrosine-protein kinase FLT3 (Homo sapiens, UniProt P36888). It counts as functional.
The target of assay [14] is Serine/threonine-protein kinase Chk1 (Homo sapiens, UniProt O14757). It counts as functional.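 Also: measured as one member of a kinome-wide kinase profiling panel.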
Assay [15] addresses Maternal embryonic leucine zipper kinase (Homo sapiens, UniProt Q14680). It counts as functional.
In assay [16] the test system is Streptococcus. Description: Group A Streptococcus viability loss, dose response, counter-screen for streptokinase expression inhibitor project, luminescence, BacTiterGlo (AID 1915).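 Also: potency for reduction of bacterial viability or growth.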 It counts as functional, organism-based. The note with it: read-out: EC50.
The target in assay [17] is Bcl-2-related protein A1 (Mus musculus, UniProt Q07440). It counts as functional.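 Also: confirmatory dose–response counterscreen on Bfl-1, used to check hits from a UBC13 polyubiquitin inhibitor campaign.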
The target in assay [18] is CAAX prenyl protease 1 (Saccharomyces cerevisiae S288c, UniProt P47154). Description: Ste24 protease inhibitors, dose response, biochemical, S. cerevisiae, plate reader, cherry-pick (AID 488815).
Assay [19] can be described thus: nonselective inhibitors of cellular cAMP signaling, dose response, counter-screen for MC4R biased antagonist project, cell-based, TR-FRET cAMP detection (AID 602305).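 Also: U2OS cells stimulated with forskolin near its EC80 as the cAMP inducer; potency is for inhibition of forskolin-stimulated cAMP signaling.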 It counts as functional.
Assay [20] concerns the target T1, Mannose-6-phosphate isomerase (Homo sapiens, UniProt P34949).
T1 sequence (P34949 whole entry): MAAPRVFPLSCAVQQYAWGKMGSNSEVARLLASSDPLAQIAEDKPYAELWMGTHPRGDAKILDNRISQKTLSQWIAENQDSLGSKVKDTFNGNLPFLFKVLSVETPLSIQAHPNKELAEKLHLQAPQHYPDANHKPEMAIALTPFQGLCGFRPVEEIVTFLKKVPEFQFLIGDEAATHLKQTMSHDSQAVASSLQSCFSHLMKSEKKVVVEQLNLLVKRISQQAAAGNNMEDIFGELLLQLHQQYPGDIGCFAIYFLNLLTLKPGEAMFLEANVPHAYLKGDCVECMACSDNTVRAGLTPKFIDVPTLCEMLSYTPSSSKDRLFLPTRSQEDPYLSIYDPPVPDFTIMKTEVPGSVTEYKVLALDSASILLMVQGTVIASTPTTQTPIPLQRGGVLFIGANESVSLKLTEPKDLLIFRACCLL
Description: human PMI inhibitors, high substrate, primary screen, biochemical, fluorescence intensity, high mannose 6-phosphate (AID 1220).

Assay [21] in a line: Luminescence Cell-Based Dose Response HTS to Identify Activators of Luciferase Translation or Activity in H4 […] Cells. [Related pubchem assays: 1829 (Project Summary), 1814 (Primary HTS)]. It counts as functional.
Assay [22] has as its target T2, Hexokinase HKDC1 (Homo sapiens, UniProt Q2TB90).
T2 sequence (Q2TB90 whole entry): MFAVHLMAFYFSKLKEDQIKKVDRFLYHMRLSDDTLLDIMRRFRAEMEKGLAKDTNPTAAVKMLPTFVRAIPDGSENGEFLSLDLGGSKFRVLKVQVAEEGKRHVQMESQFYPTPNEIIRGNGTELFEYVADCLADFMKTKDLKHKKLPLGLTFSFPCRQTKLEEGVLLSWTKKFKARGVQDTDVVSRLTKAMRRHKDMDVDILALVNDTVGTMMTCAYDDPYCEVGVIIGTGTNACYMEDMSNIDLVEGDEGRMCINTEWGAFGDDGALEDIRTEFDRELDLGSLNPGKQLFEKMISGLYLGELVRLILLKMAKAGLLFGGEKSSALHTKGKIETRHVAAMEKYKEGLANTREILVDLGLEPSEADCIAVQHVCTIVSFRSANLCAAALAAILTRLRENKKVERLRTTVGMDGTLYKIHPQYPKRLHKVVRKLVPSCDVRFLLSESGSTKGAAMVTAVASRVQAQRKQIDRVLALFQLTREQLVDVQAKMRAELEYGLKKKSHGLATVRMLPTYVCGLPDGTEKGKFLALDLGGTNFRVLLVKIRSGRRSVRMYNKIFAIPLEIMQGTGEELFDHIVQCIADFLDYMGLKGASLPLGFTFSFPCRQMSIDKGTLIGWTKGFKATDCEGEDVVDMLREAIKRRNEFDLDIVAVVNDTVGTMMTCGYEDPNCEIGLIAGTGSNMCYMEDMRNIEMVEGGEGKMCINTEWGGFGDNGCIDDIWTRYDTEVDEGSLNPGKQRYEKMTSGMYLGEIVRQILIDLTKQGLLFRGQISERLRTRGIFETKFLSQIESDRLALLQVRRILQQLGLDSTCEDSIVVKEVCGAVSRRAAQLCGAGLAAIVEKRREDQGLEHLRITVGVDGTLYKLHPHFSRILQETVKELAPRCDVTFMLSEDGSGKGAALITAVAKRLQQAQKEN
Description: HKDC1 hexokinase inhibitors, dose response, biochemical, W721R variant (AID 504729). It counts as functional.

The source made the active and inactive calls.

Sequence of Tyrosine-protein kinase Fyn (P06241 whole entry): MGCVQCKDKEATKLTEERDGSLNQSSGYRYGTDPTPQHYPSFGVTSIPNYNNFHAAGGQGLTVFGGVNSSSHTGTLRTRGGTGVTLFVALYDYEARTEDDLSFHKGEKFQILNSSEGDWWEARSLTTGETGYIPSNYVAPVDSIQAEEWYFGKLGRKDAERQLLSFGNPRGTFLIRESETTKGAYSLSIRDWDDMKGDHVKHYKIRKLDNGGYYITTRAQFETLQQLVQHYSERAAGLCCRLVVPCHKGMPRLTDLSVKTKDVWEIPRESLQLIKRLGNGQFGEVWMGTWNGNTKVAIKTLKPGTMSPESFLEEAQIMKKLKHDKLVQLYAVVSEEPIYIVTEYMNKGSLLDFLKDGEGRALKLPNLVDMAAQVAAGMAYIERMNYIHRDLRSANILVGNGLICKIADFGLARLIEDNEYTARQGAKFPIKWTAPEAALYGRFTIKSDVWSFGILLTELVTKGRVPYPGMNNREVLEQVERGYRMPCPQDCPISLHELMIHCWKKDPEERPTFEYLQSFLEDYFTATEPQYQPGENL
Sequence of Hepatocyte growth factor receptor (P08581 whole entry): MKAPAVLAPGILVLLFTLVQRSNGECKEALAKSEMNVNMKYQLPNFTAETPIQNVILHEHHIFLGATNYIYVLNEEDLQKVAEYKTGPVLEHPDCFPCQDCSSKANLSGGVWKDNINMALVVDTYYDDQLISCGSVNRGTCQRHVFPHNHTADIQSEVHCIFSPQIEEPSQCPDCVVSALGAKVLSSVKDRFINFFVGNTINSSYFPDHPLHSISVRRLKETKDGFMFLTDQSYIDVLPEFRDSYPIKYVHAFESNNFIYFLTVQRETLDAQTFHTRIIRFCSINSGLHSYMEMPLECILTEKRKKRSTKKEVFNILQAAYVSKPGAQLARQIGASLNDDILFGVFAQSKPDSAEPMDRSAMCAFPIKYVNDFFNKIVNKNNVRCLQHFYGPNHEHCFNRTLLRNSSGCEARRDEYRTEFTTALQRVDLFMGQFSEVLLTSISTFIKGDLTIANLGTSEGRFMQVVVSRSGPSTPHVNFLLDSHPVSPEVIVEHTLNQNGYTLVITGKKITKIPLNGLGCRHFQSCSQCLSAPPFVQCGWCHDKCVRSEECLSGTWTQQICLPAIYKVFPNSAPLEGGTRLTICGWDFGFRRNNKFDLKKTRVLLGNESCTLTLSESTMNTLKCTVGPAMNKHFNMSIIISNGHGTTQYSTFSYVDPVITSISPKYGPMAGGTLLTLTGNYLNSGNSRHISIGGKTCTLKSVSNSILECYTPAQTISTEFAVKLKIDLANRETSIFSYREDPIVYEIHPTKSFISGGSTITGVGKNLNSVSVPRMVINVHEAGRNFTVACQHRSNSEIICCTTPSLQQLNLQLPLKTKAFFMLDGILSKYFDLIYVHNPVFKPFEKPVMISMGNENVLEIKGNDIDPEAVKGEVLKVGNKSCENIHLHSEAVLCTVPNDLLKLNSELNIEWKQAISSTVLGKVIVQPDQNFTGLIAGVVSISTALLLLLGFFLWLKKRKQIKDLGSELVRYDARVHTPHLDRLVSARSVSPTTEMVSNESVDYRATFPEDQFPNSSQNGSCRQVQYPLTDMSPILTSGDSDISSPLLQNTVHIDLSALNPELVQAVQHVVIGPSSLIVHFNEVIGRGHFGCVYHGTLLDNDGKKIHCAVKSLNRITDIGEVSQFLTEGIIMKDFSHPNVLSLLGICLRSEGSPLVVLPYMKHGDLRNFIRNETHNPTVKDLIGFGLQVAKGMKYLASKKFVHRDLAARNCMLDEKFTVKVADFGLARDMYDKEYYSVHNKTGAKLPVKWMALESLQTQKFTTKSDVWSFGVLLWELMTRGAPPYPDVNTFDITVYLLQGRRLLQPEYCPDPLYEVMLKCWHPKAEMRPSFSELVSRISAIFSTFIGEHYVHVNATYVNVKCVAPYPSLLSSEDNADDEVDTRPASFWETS
Sequence of Dual specificity protein kinase CLK2 (P49760 whole entry): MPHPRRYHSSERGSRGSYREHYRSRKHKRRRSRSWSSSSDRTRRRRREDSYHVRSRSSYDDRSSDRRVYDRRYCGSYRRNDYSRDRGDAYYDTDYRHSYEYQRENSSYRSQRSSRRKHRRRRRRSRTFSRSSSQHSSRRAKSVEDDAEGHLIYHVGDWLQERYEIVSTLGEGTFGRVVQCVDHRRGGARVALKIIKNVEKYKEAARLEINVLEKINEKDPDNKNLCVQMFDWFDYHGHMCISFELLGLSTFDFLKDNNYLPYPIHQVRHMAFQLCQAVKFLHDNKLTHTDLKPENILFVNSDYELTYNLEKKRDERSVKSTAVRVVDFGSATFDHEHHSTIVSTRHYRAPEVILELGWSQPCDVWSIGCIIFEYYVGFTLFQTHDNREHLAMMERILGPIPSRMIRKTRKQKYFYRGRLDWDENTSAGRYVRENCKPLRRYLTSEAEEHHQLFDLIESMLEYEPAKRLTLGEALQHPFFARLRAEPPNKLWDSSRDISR
Sequence of Tyrosine-protein kinase JAK3 (P52333 whole entry): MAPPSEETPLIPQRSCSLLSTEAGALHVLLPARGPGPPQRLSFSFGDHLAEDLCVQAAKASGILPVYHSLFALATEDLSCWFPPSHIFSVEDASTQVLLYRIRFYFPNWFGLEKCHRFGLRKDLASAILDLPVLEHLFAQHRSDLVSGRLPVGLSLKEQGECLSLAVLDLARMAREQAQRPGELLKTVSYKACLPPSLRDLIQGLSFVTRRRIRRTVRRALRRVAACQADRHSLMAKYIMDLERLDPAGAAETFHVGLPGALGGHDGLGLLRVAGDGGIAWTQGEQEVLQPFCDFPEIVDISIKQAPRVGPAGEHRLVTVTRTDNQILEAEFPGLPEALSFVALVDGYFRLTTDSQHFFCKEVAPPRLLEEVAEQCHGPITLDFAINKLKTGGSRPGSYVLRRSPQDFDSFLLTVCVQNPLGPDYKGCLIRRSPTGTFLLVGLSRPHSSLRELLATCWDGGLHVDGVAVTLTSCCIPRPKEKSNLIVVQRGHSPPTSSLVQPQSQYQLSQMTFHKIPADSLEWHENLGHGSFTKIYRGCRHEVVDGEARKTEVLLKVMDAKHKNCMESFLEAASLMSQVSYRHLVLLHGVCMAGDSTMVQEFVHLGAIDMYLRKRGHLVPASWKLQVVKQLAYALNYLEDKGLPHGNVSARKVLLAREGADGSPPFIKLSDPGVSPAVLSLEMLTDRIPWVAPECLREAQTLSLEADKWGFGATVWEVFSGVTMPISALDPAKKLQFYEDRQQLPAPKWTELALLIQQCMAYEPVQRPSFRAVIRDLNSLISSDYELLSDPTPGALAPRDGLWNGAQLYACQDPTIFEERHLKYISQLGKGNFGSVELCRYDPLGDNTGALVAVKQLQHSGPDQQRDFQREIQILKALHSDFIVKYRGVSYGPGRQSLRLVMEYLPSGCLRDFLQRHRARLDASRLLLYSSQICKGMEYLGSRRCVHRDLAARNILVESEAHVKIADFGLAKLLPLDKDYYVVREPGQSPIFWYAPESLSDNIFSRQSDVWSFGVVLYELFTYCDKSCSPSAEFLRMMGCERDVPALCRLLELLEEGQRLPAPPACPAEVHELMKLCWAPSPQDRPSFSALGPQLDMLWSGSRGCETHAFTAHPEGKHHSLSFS
Sequence of Serine/threonine-protein kinase TBK1 (Q9UHD2 whole entry): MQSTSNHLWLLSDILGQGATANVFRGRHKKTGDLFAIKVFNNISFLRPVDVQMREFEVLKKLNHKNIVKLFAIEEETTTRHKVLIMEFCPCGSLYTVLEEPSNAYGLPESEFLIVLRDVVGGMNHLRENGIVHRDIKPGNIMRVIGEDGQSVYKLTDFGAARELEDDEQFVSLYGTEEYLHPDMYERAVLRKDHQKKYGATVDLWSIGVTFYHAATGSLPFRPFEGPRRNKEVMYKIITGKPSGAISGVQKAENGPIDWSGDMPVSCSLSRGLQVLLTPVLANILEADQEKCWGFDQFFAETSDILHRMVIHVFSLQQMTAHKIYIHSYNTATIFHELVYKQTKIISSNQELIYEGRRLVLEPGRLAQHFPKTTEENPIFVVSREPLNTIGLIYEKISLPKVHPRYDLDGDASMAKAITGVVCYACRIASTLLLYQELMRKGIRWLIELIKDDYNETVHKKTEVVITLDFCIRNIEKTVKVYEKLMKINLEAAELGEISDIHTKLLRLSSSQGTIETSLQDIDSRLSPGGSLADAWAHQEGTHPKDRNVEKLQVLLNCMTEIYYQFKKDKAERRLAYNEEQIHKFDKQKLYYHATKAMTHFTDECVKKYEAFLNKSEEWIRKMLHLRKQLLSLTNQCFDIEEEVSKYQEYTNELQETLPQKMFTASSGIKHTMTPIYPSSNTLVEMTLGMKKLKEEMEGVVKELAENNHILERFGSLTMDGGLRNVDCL
Sequence of MAP kinase-activated protein kinase 5 (Q8IW41 whole entry): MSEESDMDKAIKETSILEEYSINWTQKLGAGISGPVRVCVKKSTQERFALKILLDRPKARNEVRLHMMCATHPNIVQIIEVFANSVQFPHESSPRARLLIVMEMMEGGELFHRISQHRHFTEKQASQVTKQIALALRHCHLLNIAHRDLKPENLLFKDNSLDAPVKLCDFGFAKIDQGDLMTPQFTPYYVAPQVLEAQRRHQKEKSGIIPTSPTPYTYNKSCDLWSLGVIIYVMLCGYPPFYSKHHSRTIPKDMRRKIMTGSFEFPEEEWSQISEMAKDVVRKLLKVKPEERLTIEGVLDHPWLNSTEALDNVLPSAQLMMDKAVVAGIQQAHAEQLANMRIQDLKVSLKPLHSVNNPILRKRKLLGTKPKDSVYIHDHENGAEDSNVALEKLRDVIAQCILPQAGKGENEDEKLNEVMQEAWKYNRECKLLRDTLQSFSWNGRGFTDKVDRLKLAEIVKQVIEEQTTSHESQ
Sequence of Bcl-2-related protein A1 (Q07440 whole entry): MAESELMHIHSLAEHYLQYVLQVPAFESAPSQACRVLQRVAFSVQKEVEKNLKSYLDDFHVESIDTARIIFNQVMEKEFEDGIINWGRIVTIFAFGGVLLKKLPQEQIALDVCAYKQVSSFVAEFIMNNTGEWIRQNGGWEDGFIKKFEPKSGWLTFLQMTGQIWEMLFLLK

Usually Ki stands for a dissociation constant, usually derived from enzyme kinetics or from competition with a known ligand. `CCn1c(-c2nonc2N)nc2cncc(C(=O)N3CCC(N)C3)c21` (configuration not stated): the Ki in assay [1] was 1 µM (active); in [2], > 3.16 µM (inactive); in assay [3], > 3.98 µM (inactive); in assay [4], > 5.01 µM (inactive); in assay [5] it was > 2.51 µM (inactive); in assay [6], > 6.31 µM (inactive). For the same compound, the Ki in assay [7] is > 7.94 µM (inactive).

On to `Cc1[nH]nc2ccc(-c3cncc(OCC(N)Cc4c[nH]c5ccccc45)c3)cc12` (configuration not stated), for which the Ki was 0.00316 µM (active) in [1]; 0.0126 µM (active) in assay [8]; 1.26 µM (active) in assay [9]; > 1.58 µM (inactive) in [10]; 0.316 µM (active) in assay [4]; 0.0794 µM (active) in [11]. In addition, the Ki in assay [12] was > 2 µM (inactive); in assay [5], > 3.16 µM (inactive); in assay [13] it was 0.316 µM (active); in assay [14] it was > 7.94 µM (inactive); in assay [15] it was 0.316 µM (active); in assay [6], > 0.794 µM (inactive).

The EC50 is the concentration needed to bring the measured effect to its halfway point. Usually IC50 stands for the midpoint of a concentration-inhibition curve. The AC50 is the concentration at which the activity in the assay is half-maximal. As to `CCCCCCCCCCC[N+](C)(C)CC/C=C1/c2ccccc2Sc2ccc(Cl)cc21`, the EC50 in [16] is 7.23 µM (active). Also, the concentration for half-maximal inhibition (IC50) in assay [17] is 8.26 µM (active); in [19], 25.9 µM (inactive). Besides, the AC50 in [18] was 7.07 µM (active).

`Cc1cc(C)c[n+](C2=C([N-]S(=O)(=O)c3cccs3)C(=O)c3ccccc3C2=O)c1`: the EC50 in assay [16] is 9.57 µM (active). Also, the IC50 in [20] was > 50 µM (not active).

For the compound `COC(=O)c1ccccc1NC1=C/C(=N\S(=O)(=O)c2cccs2)c2ccccc2C1=O`, the EC50 in [21] was > 120 µM (not active). In [22], the IC50 was 27.5 µM (inactive).

The values are drawn from ChEMBL document CHEMBL1201862, “PubChem BioAssay data set” (2004).
